Reference: patent US20050245399A1, “Pyrazole derivatives as herbicidal compositions containing them” (ISHIHARA SANGYO KAISHA, LTD., priority 2004, published 2005)

system: rice (Oryza sativa L.): ORYSA; assay: Test Example 1 pre-emergence herbicidal activity, ORYSA; assay type: in vivo; details: Rate 63 g a.i./ha, visually observed 20th to 23rd day after application
How it was run: (§1)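 Visual scoring 20–23 days after treatment gives percent growth control, where 0 equals untreated and 100 means complete kill. Treatment: pre-emergence spray of formulated compound in 500 L/ha water, one day after sowing in upland soil.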

In order of falling “Pre-emergence Herbicidal Activity ORYSA (growth controlling degree)” value:
1. COc1c(Cl)cc(F)c(-c2nn(C)c(OC(F)F)c2Cl)c1NC(=O)C=Cc1cccc(C)c1 [Compound 1-254]  20%
2. COc1c(Cl)cc(F)c(-c2nn(C)c(OC(F)F)c2Cl)c1NC(=O)C=Cc1ccc(C)cc1 [Compound 1-255]  0%

system: soybean (Glycine max Merr.): GLXMA; assay: Test Example 1 pre-emergence herbicidal activity, GLXMA; assay type: in vivo; details: Rate 63 g a.i./ha, visually observed 20th to 23rd day after application
How it was run: as §1

In order of rising “Pre-emergence Herbicidal Activity GLXMA (growth controlling degree)” value:
1. COc1c(Cl)cc(F)c(-c2nn(C)c(OC(F)F)c2Cl)c1NC(=O)C=Cc1cccc(C)c1 [Compound 1-254]  0%
2. COc1c(Cl)cc(F)c(-c2nn(C)c(OC(F)F)c2Cl)c1NC(=O)C=Cc1ccc(C)cc1 [Compound 1-255]  0%

system: velvetleaf (Abutilon theophrasti), ABUTH; assay: Test Example 2 post-emergence (foliage treatment) herbicidal activity, ABUTH; assay type: in vivo; details: 63 g a.i./ha
How it was run: (§2)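 Each species was evaluated for growth suppression by eye, 0% matching untreated and 100% meaning death, some 20 to 23 days after a single post-emergence foliar treatment applied in 500 L/ha of water carrying 0.1% (v/v) agricultural spreader.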

In order of rising “growth controlling degree, ABUTH” value:
1. COc1c(Cl)cc(F)c(-c2nn(C)c(OC(F)F)c2Cl)c1NC(=O)C=Cc1cccc(C)c1 [Compound 1-254]  100%
2. COc1c(Cl)cc(F)c(-c2nn(C)c(OC(F)F)c2Cl)c1NC(=O)C=Cc1ccc(C)cc1 [Compound 1-255]  100%

system: wheat (Triticum aestivum L.), TRZAX; assay: Test Example 2 post-emergence (foliage treatment) herbicidal activity, TRZAX; assay type: in vivo; details: 63 g a.i./ha
How it was run: as §2

In order of rising “growth controlling degree, TRZAX” value:
1. COc1c(Cl)cc(F)c(-c2nn(C)c(OC(F)F)c2Cl)c1NC(=O)C=Cc1ccc(C)cc1 [Compound 1-255]  10%
2. COc1c(Cl)cc(F)c(-c2nn(C)c(OC(F)F)c2Cl)c1NC(=O)C=Cc1cccc(C)c1 [Compound 1-254]  30%

system: barnyardgrass (Echinochloa crus-galli L.): ECHCG; assay: Test Example 1 pre-emergence herbicidal activity, ECHCG; assay type: in vivo; details: Rate 63 g a.i./ha, visually observed 20th to 23rd day after application
How it was run: as §1

In order of falling “Pre-emergence Herbicidal Activity ECHCG (growth controlling degree)” value:
1. COc1c(Cl)cc(F)c(-c2nn(C)c(OC(F)F)c2Cl)c1NC(=O)C=Cc1cccc(C)c1 [Compound 1-254]  60%
2. COc1c(Cl)cc(F)c(-c2nn(C)c(OC(F)F)c2Cl)c1NC(=O)C=Cc1ccc(C)cc1 [Compound 1-255]  0%

system: velvetleaf (Abutilon theophrasti): ABUTH; assay: Test Example 1 pre-emergence herbicidal activity, ABUTH; assay type: in vivo; details: Rate 63 g a.i./ha, visually observed 20th to 23rd day after application
How it was run: as §1

In order of rising “Pre-emergence Herbicidal Activity ABUTH (growth controlling degree)” value:
1. COc1c(Cl)cc(F)c(-c2nn(C)c(OC(F)F)c2Cl)c1NC(=O)C=Cc1ccc(C)cc1 [Compound 1-255]  0%
2. COc1c(Cl)cc(F)c(-c2nn(C)c(OC(F)F)c2Cl)c1NC(=O)C=Cc1cccc(C)c1 [Compound 1-254]  50%

system: crabgrass (Digitaria sanguinalis L.), DIGSA; assay: Test Example 2 post-emergence (foliage treatment) herbicidal activity, DIGSA; assay type: in vivo; details: 63 g a.i./ha
How it was run: (§3)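 Foliar spray of formulated compound (500 L/ha dilution water, 0.1% v/v spreader) onto young potted plants at defined leaf stages. Scored 0-100% by visual inspection 20-23 d post-spray.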

In order of rising “growth controlling degree, DIGSP” value:
1. COc1c(Cl)cc(F)c(-c2nn(C)c(OC(F)F)c2Cl)c1NC(=O)C=Cc1ccc(C)cc1 [Compound 1-255]  30%
2. COc1c(Cl)cc(F)c(-c2nn(C)c(OC(F)F)c2Cl)c1NC(=O)C=Cc1cccc(C)c1 [Compound 1-254]  60%

system: green foxtail (Setaria viridis L.): SETVI; assay: Test Example 1 pre-emergence herbicidal activity, SETVI; assay type: in vivo; details: Rate 63 g a.i./ha, visually observed 20th to 23rd day after application
How it was run: as §1

In order of rising “Pre-emergence Herbicidal Activity SETVI (growth controlling degree)” value:
1. COc1c(Cl)cc(F)c(-c2nn(C)c(OC(F)F)c2Cl)c1NC(=O)C=Cc1ccc(C)cc1 [Compound 1-255]  10%
2. COc1c(Cl)cc(F)c(-c2nn(C)c(OC(F)F)c2Cl)c1NC(=O)C=Cc1cccc(C)c1 [Compound 1-254]  50%

system: wheat (Triticum aestivum L.): TRZAX; assay: Test Example 1 pre-emergence herbicidal activity, TRZAX; assay type: in vivo; details: Rate 63 g a.i./ha, visually observed 20th to 23rd day after application
How it was run: as §1

In order of rising “Pre-emergence Herbicidal Activity TRZAX (growth controlling degree)” value:
1. COc1c(Cl)cc(F)c(-c2nn(C)c(OC(F)F)c2Cl)c1NC(=O)C=Cc1cccc(C)c1 [Compound 1-254]  0%
2. COc1c(Cl)cc(F)c(-c2nn(C)c(OC(F)F)c2Cl)c1NC(=O)C=Cc1ccc(C)cc1 [Compound 1-255]  0%

system: barnyardgrass (Echinochloa crus-galli L.), ECHCG; assay: Test Example 2 post-emergence (foliage treatment) herbicidal activity, ECHCG; assay type: in vivo; details: 63 g a.i./ha
How it was run: as §3

In order of falling “growth controlling degree, ECHCO” value:
1. COc1c(Cl)cc(F)c(-c2nn(C)c(OC(F)F)c2Cl)c1NC(=O)C=Cc1cccc(C)c1 [Compound 1-254]  80%
2. COc1c(Cl)cc(F)c(-c2nn(C)c(OC(F)F)c2Cl)c1NC(=O)C=Cc1ccc(C)cc1 [Compound 1-255]  50%

system: corn (Zea mays L.), ZEAMX; assay: Test Example 2 post-emergence (foliage treatment) herbicidal activity, ZEAMX; assay type: in vivo; details: 63 g a.i./ha
How it was run: as §2

In order of falling “growth controlling degree, ZEAMX” value:
1. COc1c(Cl)cc(F)c(-c2nn(C)c(OC(F)F)c2Cl)c1NC(=O)C=Cc1cccc(C)c1 [Compound 1-254]  30%
2. COc1c(Cl)cc(F)c(-c2nn(C)c(OC(F)F)c2Cl)c1NC(=O)C=Cc1ccc(C)cc1 [Compound 1-255]  20%

system: rice (Oryza sativa L.), ORYSA; assay: Test Example 2 post-emergence (foliage treatment) herbicidal activity, ORYSA; assay type: in vivo; details: 63 g a.i./ha
How it was run: as §3

In order of rising “growth controlling degree, ORYSA” value:
1. COc1c(Cl)cc(F)c(-c2nn(C)c(OC(F)F)c2Cl)c1NC(=O)C=Cc1ccc(C)cc1 [Compound 1-255]  40%
2. COc1c(Cl)cc(F)c(-c2nn(C)c(OC(F)F)c2Cl)c1NC(=O)C=Cc1cccc(C)c1 [Compound 1-254]  90%

system: green foxtail (Setaria viridis L.), SETVI; assay: Test Example 2 post-emergence (foliage treatment) herbicidal activity, SETVI; assay type: in vivo; details: 63 g a.i./ha
How it was run: as §2

In order of falling “growth controlling degree, SETVI” value:
1. COc1c(Cl)cc(F)c(-c2nn(C)c(OC(F)F)c2Cl)c1NC(=O)C=Cc1cccc(C)c1 [Compound 1-254]  95%
2. COc1c(Cl)cc(F)c(-c2nn(C)c(OC(F)F)c2Cl)c1NC(=O)C=Cc1ccc(C)cc1 [Compound 1-255]  50%

system: crabgrass (Digitaria sanguinalis L.): DIGSA; assay: Test Example 1 pre-emergence herbicidal activity, DIGSA; assay type: in vivo; details: Rate 63 g a.i./ha, visually observed 20th to 23rd day after application
How it was run: as §1

In order of rising “Pre-emergence Herbicidal Activity DIGSP (growth controlling degree)” value:
1. COc1c(Cl)cc(F)c(-c2nn(C)c(OC(F)F)c2Cl)c1NC(=O)C=Cc1ccc(C)cc1 [Compound 1-255]  10%
2. COc1c(Cl)cc(F)c(-c2nn(C)c(OC(F)F)c2Cl)c1NC(=O)C=Cc1cccc(C)c1 [Compound 1-254]  60%

system: soybean (Glycine max Merr.), GLXMA; assay: Test Example 2 post-emergence (foliage treatment) herbicidal activity, GLXMA; assay type: in vivo; details: 63 g a.i./ha
How it was run: as §2

In order of falling “growth controlling degree, GLXMA” value:
1. COc1c(Cl)cc(F)c(-c2nn(C)c(OC(F)F)c2Cl)c1NC(=O)C=Cc1cccc(C)c1 [Compound 1-254]  70%
2. COc1c(Cl)cc(F)c(-c2nn(C)c(OC(F)F)c2Cl)c1NC(=O)C=Cc1ccc(C)cc1 [Compound 1-255]  50%

system: redroot pigweed (Amaranthus retroflexus L.): AMARE; assay: Test Example 1 pre-emergence herbicidal activity, AMARE; assay type: in vivo; details: Rate 63 g a.i./ha, visually observed 20th to 23rd day after application
How it was run: as §1

In order of falling “Pre-emergence Herbicidal Activity AMARE (growth controlling degree)” value:
1. COc1c(Cl)cc(F)c(-c2nn(C)c(OC(F)F)c2Cl)c1NC(=O)C=Cc1cccc(C)c1 [Compound 1-254]  100%
2. COc1c(Cl)cc(F)c(-c2nn(C)c(OC(F)F)c2Cl)c1NC(=O)C=Cc1ccc(C)cc1 [Compound 1-255]  70%

system: prickly sida (Sida spinosa L.): SEDSP; assay: Test Example 1 pre-emergence herbicidal activity, SIDSP; assay type: in vivo; details: Rate 63 g a.i./ha, visually observed 20th to 23rd day after application
How it was run: as §1

In order of rising “Pre-emergence Herbicidal Activity SIDSP (growth controlling degree)” value:
1. COc1c(Cl)cc(F)c(-c2nn(C)c(OC(F)F)c2Cl)c1NC(=O)C=Cc1ccc(C)cc1 [Compound 1-255]  0%
2. COc1c(Cl)cc(F)c(-c2nn(C)c(OC(F)F)c2Cl)c1NC(=O)C=Cc1cccc(C)c1 [Compound 1-254]  60%

system: redroot pigweed (Amaranthus retroflexus L.), AMARE; assay: Test Example 2 post-emergence (foliage treatment) herbicidal activity, AMARE; assay type: in vivo; details: 63 g a.i./ha
How it was run: as §3

In order of falling “growth controlling degree, AMARE” value:
1. COc1c(Cl)cc(F)c(-c2nn(C)c(OC(F)F)c2Cl)c1NC(=O)C=Cc1cccc(C)c1 [Compound 1-254]  100%
2. COc1c(Cl)cc(F)c(-c2nn(C)c(OC(F)F)c2Cl)c1NC(=O)C=Cc1ccc(C)cc1 [Compound 1-255]  100%

system: prickly sida (Sida spinosa L.), SIDSP; assay: Test Example 2 post-emergence (foliage treatment) herbicidal activity, SIDSP; assay type: in vivo; details: 63 g a.i./ha
How it was run: as §2

In order of falling “growth controlling degree, SIDSP” value:
1. COc1c(Cl)cc(F)c(-c2nn(C)c(OC(F)F)c2Cl)c1NC(=O)C=Cc1cccc(C)c1 [Compound 1-254]  100%
2. COc1c(Cl)cc(F)c(-c2nn(C)c(OC(F)F)c2Cl)c1NC(=O)C=Cc1ccc(C)cc1 [Compound 1-255]  100%

system: corn (Zea mays L.): ZEAMX; assay: Test Example 1 pre-emergence herbicidal activity, ZEAMX; assay type: in vivo; details: Rate 63 g a.i./ha, visually observed 20th to 23rd day after application
How it was run: as §1

In order of rising “Pre-emergence Herbicidal Activity ZEAMX (growth controlling degree)” value:
1. COc1c(Cl)cc(F)c(-c2nn(C)c(OC(F)F)c2Cl)c1NC(=O)C=Cc1cccc(C)c1 [Compound 1-254]  0%
2. COc1c(Cl)cc(F)c(-c2nn(C)c(OC(F)F)c2Cl)c1NC(=O)C=Cc1ccc(C)cc1 [Compound 1-255]  0%
